In PubChem BioAssay AID248 (DTP/NCI, 2004):
Values joined by “and” are separate entries in the source; they are usually repeats but may differ in a detail not shown here. Equal values may be shown once. Toxic doses and inconclusive results are not listed.

Tested on: L1210 leukemia ip in BDF1 mice, survival T/C
Experiment: NCI In Vivo Anticancer Drug Screen. Data for tumor model L1210 Leukemia (intraperitoneal) in B6D2F1 (BDF1) mice
Settings: endpoint: mean survival time, higher = longer survival
Method in brief: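 In this screen, tumor-bearing mice given compound are compared to those given vehicle, and their survival values are reported as a treated-to-control quotient.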

[1] = dose: 25.0 mg/kg/injection, schedule: Q01DX009 (ip), vehicle: saline
[2] = dose: 50.0 mg/kg/injection, schedule: Q01DX009 (ip), vehicle: saline
[3] = dose: 100.0 mg/kg/injection, schedule: Q01DX009 (ip), vehicle: saline
[4] = dose: 100.0 mg/kg/injection, schedule: Q04DX003 (ip), vehicle: Klucel (hydroxypropylcellulose) (HPC)
[5] = dose: 200.0 mg/kg/injection, schedule: Q04DX003 (ip), vehicle: Klucel (hydroxypropylcellulose) (HPC)
[6] = dose: 100.0 mg/kg/injection, schedule: Q01DX009 (ip), vehicle: saline with Tween-80
[7] = dose: 200.0 mg/kg/injection, schedule: Q01DX009 (ip), vehicle: saline with Tween-80
[8] = dose: 100.0 mg/kg/injection, schedule: Q01DX001 (ip), vehicle: saline with Tween-80
[9] = dose: 200.0 mg/kg/injection, schedule: Q01DX001 (ip), vehicle: saline with Tween-80
[10] = dose: 400.0 mg/kg/injection, schedule: Q01DX001 (ip), vehicle: saline with Tween-80
[11] = dose: 100.0 mg/kg/injection, schedule: Q01DX001 (ip), vehicle: saline
[12] = dose: 200.0 mg/kg/injection, schedule: Q01DX001 (ip), vehicle: saline
[13] = dose: 400.0 mg/kg/injection, schedule: Q01DX001 (ip), vehicle: saline
[14] = dose: 100.0 mg/kg/injection, schedule: Q04DX003 (ip), vehicle: saline with Tween-80
[15] = dose: 200.0 mg/kg/injection, schedule: Q04DX003 (ip), vehicle: saline with Tween-80
[16] = dose: 400.0 mg/kg/injection, schedule: Q04DX003 (ip), vehicle: saline with Tween-80
[17] = dose: 100.0 mg/kg/injection, schedule: Q04DX003 (ip), vehicle: saline

`NC(CO)CSCc1ccccc1` (configuration not stated) was tested, and the T/C (dose: 6.25 mg/kg/injection, schedule: Q01DX009 (ip), vehicle: saline) was 105 % of control, the T/C (dose: 12.5 mg/kg/injection, schedule: Q01DX009 (ip), vehicle: saline) was 100 % of control and the T/C [1] was 110 % of control and 113 % of control. The T/C [2] was 100 % of control and 102 % of control and the T/C [3] was 104 % of control.
In the case of `CC(=O)c1ccccc1C(=O)O`, the T/C (dose: 50.0 mg/kg/injection, schedule: Q04DX003 (ip), vehicle: Klucel (hydroxypropylcellulose) (HPC)) is reported as 98 % of control, the T/C [4] is reported as 94 % of control and the T/C [5] is reported as 96 % of control.
In the case of `O=C1CNc2ccc(Cl)cc2N1`, the T/C (dose: 100.0 mg/kg/injection, schedule: Q04DX003 (ip), vehicle: acetone) is reported as 92 % of control, the T/C (dose: 200.0 mg/kg/injection, schedule: Q04DX003 (ip), vehicle: acetone) is reported as 95 % of control and the T/C (dose: 400.0 mg/kg/injection, schedule: Q04DX003 (ip), vehicle: acetone) is reported as 88 % of control.
With `O=C1c2ccccc2C(=O)C2C3C=CC(C3)C12` (configuration not stated) the T/C (dose: 50.0 mg/kg/injection, schedule: Q01DX001 (ip), vehicle: carboxymethylcellulose (CMC)) was 93 % of control, the T/C (dose: 100.0 mg/kg/injection, schedule: Q01DX001 (ip), vehicle: carboxymethylcellulose (CMC)) was 100 % of control and the T/C (dose: 200.0 mg/kg/injection, schedule: Q01DX001 (ip), vehicle: carboxymethylcellulose (CMC)) was 100 % of control. For the same compound, the T/C (dose: 400.0 mg/kg/injection, schedule: Q01DX001 (ip), vehicle: carboxymethylcellulose (CMC)) was 103 % of control.
For `Cc1cccc2c1ccc1cc(C(C)C)ccc12`, the T/C (dose: 75.0 mg/kg/injection, schedule: Q01DX009 (ip), vehicle: Klucel (hydroxypropylcellulose) (HPC)) was 106 % of control, the T/C (dose: 150.0 mg/kg/injection, schedule: Q01DX009 (ip), vehicle: Klucel (hydroxypropylcellulose) (HPC)) was 105 % of control and the T/C (dose: 300.0 mg/kg/injection, schedule: Q01DX009 (ip), vehicle: Klucel (hydroxypropylcellulose) (HPC)) was 98 % of control.
`CCN(CC)C(=O)Oc1ccc(OC)cc1` was tested, and the T/C [6] was 109 % of control and the T/C [7] was 96 % of control.
`C=CCc1ccc(OCCOCCNC2CC(C)CCC2C(C)C)c(OC)c1` (configuration not stated) was tested, and the T/C [4] was 92 % of control.
For `COC(=O)c1ccc(N(C)CC(=O)CNc2nc(N)nc(SCc3ccccc3)c2[N+](=O)[O-])cc1`, the T/C [8] was 88 % of control, the T/C [9] was 89 % of control and the T/C [10] was 88 % of control.
In the case of `O=C(Nc1cccc2ncccc12)c1ccc(C(=O)Nc2cccc3ncccc23)cc1`, the T/C [11] is reported as 101 % of control, the T/C [12] is reported as 93 % of control and the T/C [13] is reported as 91 % of control.
With `COCN(C(=O)CCl)c1c(C)cccc1C(C)(C)C` the T/C [6] was 95 % of control, the T/C [7] was 97 % of control and the T/C (dose: 400.0 mg/kg/injection, schedule: Q01DX009 (ip), vehicle: saline with Tween-80) was 93 % of control.
`Cc1cc([N+](=O)[O-])ccn1` was tested, and the T/C [6] was 94 % of control and the T/C [7] was 93 % of control.
For `Cc1cc(C(=O)O)c(C(C)C)cc1C(=O)O`, the T/C (dose: 100.0 mg/kg/injection, schedule: Q04DX003 (ip), vehicle: other) was 101 % of control, the T/C (dose: 200.0 mg/kg/injection, schedule: Q04DX003 (ip), vehicle: other) was 98 % of control and the T/C (dose: 400.0 mg/kg/injection, schedule: Q04DX003 (ip), vehicle: other) was 92 % of control.
With `O=C1c2ccccc2C(=O)N1CNc1cccc(NCN2C(=O)c3ccccc3C2=O)c1` the T/C [14] was 91 % of control, the T/C [15] was 97 % of control and the T/C [16] was 102 % of control.
For `NC(=O)c1cccc[n+]1Cc1cc(=O)[nH]c(=O)[nH]1`, the T/C [17] was 93 % of control, the T/C (dose: 200.0 mg/kg/injection, schedule: Q04DX003 (ip), vehicle: saline) was 101 % of control and the T/C (dose: 400.0 mg/kg/injection, schedule: Q04DX003 (ip), vehicle: saline) was 89 % of control.
`Cc1ccc(S(=O)(=O)NC(c2ccccc2)(c2ccccc2)c2ccc([N+](=O)[O-])cc2)cc1` was tested, and the T/C [3] was 100 % of control, the T/C (dose: 200.0 mg/kg/injection, schedule: Q01DX009 (ip), vehicle: saline) was 103 % of control and the T/C (dose: 400.0 mg/kg/injection, schedule: Q01DX009 (ip), vehicle: saline) was 101 % of control.
With `CC(=O)NC(O)C(Cl)(Cl)Cl` (configuration not stated) the T/C (dose: 100.0 mg/kg/injection, schedule: Q01DX009 (ip), vehicle: saline sonified) was 102 % of control, the T/C [14] was 100 % of control and the T/C (dose: 200.0 mg/kg/injection, schedule: Q01DX009 (ip), vehicle: saline sonified) was 95 % of control. For the same compound, the T/C [15] was 96 % of control, the T/C (dose: 400.0 mg/kg/injection, schedule: Q01DX009 (ip), vehicle: saline sonified) was 93 % of control and the T/C [16] was 110 % of control.
In the case of `S=C([S][Sn]([S]C(=S)N(c1ccccc1)c1ccccc1)([c]1ccccc1)[c]1ccccc1)N(c1ccccc1)c1ccccc1`, the T/C (dose: 100.0 mg/kg/injection, schedule: Q01DX001 (ip), vehicle: steriod suspending solution) is reported as 93 % of control and the T/C (dose: 200.0 mg/kg/injection, schedule: Q01DX001 (ip), vehicle: steriod suspending solution) is reported as 112 % of control.
In the case of `Cc1ccc(S(=O)(=O)N(C)c2cc(Cl)c(I)cc2Cl)cc1`, the T/C (dose: 100.0 mg/kg/injection, schedule: Q01DX001 (ip), vehicle: Klucel (hydroxypropylcellulose) (HPC)) is reported as 97 % of control, the T/C [4] is reported as 93 % of control and 94 % of control and the T/C (dose: 200.0 mg/kg/injection, schedule: Q01DX001 (ip), vehicle: Klucel (hydroxypropylcellulose) (HPC)) is reported as 97 % of control. For the same compound, the T/C [5] was 98 % of control, the T/C (dose: 400.0 mg/kg/injection, schedule: Q01DX001 (ip), vehicle: Klucel (hydroxypropylcellulose) (HPC)) was 94 % of control and the T/C (dose: 400.0 mg/kg/injection, schedule: Q04DX003 (ip), vehicle: Klucel (hydroxypropylcellulose) (HPC)) was 97 % of control and 98 % of control.
In the case of `O=NN(CCCl)C(=O)NC1CS(=O)(=O)CS(=O)(=O)C1`, the T/C (dose: 6.25 mg/kg/injection, schedule: Q01DX001 (ip), vehicle: other) is reported as 193 % of control, the T/C (dose: 12.5 mg/kg/injection, schedule: Q01DX001 (ip), vehicle: other) is reported as 296 % of control and the T/C (dose: 25.0 mg/kg/injection, schedule: Q01DX001 (ip), vehicle: other) is reported as 322 % of control. The T/C (dose: 50.0 mg/kg/injection, schedule: Q01DX001 (ip), vehicle: other) was 252 % of control and the T/C (dose: 75.0 mg/kg/injection, schedule: Q01DX001 (ip), vehicle: other) was 117 % of control.
With `O=C1c2nc3ccccc3nc2C(=O)N1O` the T/C (dose: 100.0 mg/kg/injection, schedule: Q01DX009 (ip), vehicle: Klucel (hydroxypropylcellulose) (HPC)) was 107 % of control and the T/C (dose: 200.0 mg/kg/injection, schedule: Q01DX009 (ip), vehicle: Klucel (hydroxypropylcellulose) (HPC)) was 100 % of control.
`CCCCCCCCCCCCCCCCCC1=NCCN1CCN` was tested, and the T/C [1] was 111 % of control, the T/C (dose: 25.0 mg/kg/injection, schedule: Q04DX003 (ip), vehicle: saline) was 97 % of control and the T/C [2] was 97 % of control. For the same compound, the T/C (dose: 50.0 mg/kg/injection, schedule: Q04DX003 (ip), vehicle: saline) was 92 % of control, the T/C (dose: 100.0 mg/kg/injection, schedule: Q01DX001 (ip), vehicle: acetone) was 100 % of control and the T/C [17] was 101 % of control.
`CC1N2CC12c1ccccc1` (configuration not stated) was tested, and the T/C (dose: 10.0 mg/kg/injection, schedule: Q01DX001 (ip), vehicle: saline) was 103 % of control, the T/C (dose: 20.0 mg/kg/injection, schedule: Q01DX001 (ip), vehicle: saline) was 108 % of control and the T/C (dose: 40.0 mg/kg/injection, schedule: Q01DX001 (ip), vehicle: saline) was 103 % of control.
In the case of `Clc1c2c(nc3ccccc13)CCCC2`, the T/C [11] is reported as 95 % of control and the T/C [12] is reported as 95 % of control.
`CCOC(=O)CNc1ccc(F)c(F)c1` was tested, and the T/C (dose: 100.0 mg/kg/injection, schedule: Q04DX002 (ip), vehicle: Klucel (hydroxypropylcellulose) (HPC)) was 97 % of control, the T/C (dose: 200.0 mg/kg/injection, schedule: Q04DX002 (ip), vehicle: Klucel (hydroxypropylcellulose) (HPC)) was 90 % of control and the T/C (dose: 400.0 mg/kg/injection, schedule: Q04DX002 (ip), vehicle: Klucel (hydroxypropylcellulose) (HPC)) was 103 % of control.
With `CCOC(=O)C(CCC(c1ccc(OC)cc1)c1ccc(OC)cc1)C(=O)OCC` the T/C [11] was 98 % of control, the T/C [12] was 93 % of control and the T/C [13] was 94 % of control.
With `Nc1nc(N)c(-c2ccc(Cl)c(Cl)c2)c(/C=C/c2ccc(S(=O)(=O)F)cc2)n1` the T/C [8] was 87 % of control, the T/C [9] was 91 % of control and the T/C [10] was 87 % of control.
`COc1ccc(-n2cc3c(=O)nccc-3c3ccccc32)cc1OC` was tested, and the T/C (dose: 75.0 mg/kg/injection, schedule: Q01DX001 (ip), vehicle: saline) was 95 % of control and the T/C (dose: 150.0 mg/kg/injection, schedule: Q01DX001 (ip), vehicle: saline) was 89 % of control.
